Measured values taken from PubChem BioAssay (NCI).
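Results reflect a 48-hour exposure of cells in 96-well plates to compound at five concentrations. At the TGI there is no net growth.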 Where a SMILES comes first, the peptide text is derived from it. [ ]: non-standard residue; d: D form. The star is where a group is joined. ξ: configuration not given here. NMeF = CN[CH](Cc1ccccc1)C(=O)O; ξNMe2Val = CC(C)C(C(=O)*)N(C)C; NMeV = CN[CH](C(=O)O)C(C)C; ξNMeV = CNC(C(=O)O)C(C)C; Boc = CC(C)(C)OC(=O)*; OBn = c1ccc(CO*)cc1; OtBu = CC(C)(C)O*

Key:
Assay in all cases: NCI tumour cell line growth inhibition, 48 h
HOP-18 NSCLC = test system: HOP-18 NSCLC
DLD-1 colon = test system: DLD-1 colon
KM20L2 colon = test system: KM20L2 colon
M19-MEL melanoma = test system: M19-MEL melanoma
XF 498 CNS = test system: XF 498 CNS
RXF-631 renal = test system: RXF-631 renal
DMS 114 small cell lung = test system: DMS 114 small cell lung
DMS 273 small cell lung = test system: DMS 273 small cell lung
SNB-78 CNS = test system: SNB-78 CNS

Compound: Cc1nn2c(c1C#N)NNc1c-2sc(=N)nnc1=O
- TGI (HOP-18 NSCLC): > 100 µM
- TGI (DLD-1 colon): > 100 µM
- TGI (KM20L2 colon): > 100 µM
- TGI (M19-MEL melanoma): > 100 µM

Compound: CCCCOC(=O)NC(=O)c1cn(CCCOC(=O)CCCCCCCCC(=O)OCCCn2cc(C(=O)NC(=O)OCCCC)c(=O)n(C)c2=O)c(=O)n(C)c1=O
- TGI (XF 498 CNS): > 100 µM
- TGI (DLD-1 colon): > 100 µM
- TGI (KM20L2 colon): > 100 µM
- TGI (M19-MEL melanoma): > 100 µM
- TGI (RXF-631 renal): > 100 µM
- TGI (DMS 114 small cell lung): > 100 µM
- TGI (DMS 273 small cell lung): > 100 µM
- TGI (SNB-78 CNS): > 100 µM

Compound: CC(C)C(C(=O)N(C)C(Cc1ccccc1)C(=O)N(C)C(C(=O)N(C)C(C(=O)N1CCCC1C(=O)OC(C)(C)C)C(C)C)C(C)C)N(C)C (stereo not drawn) (ξNMe2Val-[NMeF][NMeV][NMeV]P-OtBu; configuration not given here)
- TGI (XF 498 CNS): 86.1 µM
- TGI (KM20L2 colon): 46.4 µM
- TGI (M19-MEL melanoma): > 100 µM
- TGI (DMS 114 small cell lung): > 100 µM
- TGI (DMS 273 small cell lung): 84.1 µM

Compound: Cc1ccc(NC(=O)C2C3CCC(O3)C2C(=O)O)cc1 (stereo not drawn)
- TGI (HOP-18 NSCLC): > 100 µM
- TGI (XF 498 CNS): > 77.8 µM
- TGI (DLD-1 colon): 96.9 µM
- TGI (KM20L2 colon): > 57.8 µM
- TGI (M19-MEL melanoma): > 100 µM
- TGI (RXF-631 renal): > 100 µM
- TGI (DMS 114 small cell lung): > 59.8 µM
- TGI (DMS 273 small cell lung): > 100 µM
- TGI (SNB-78 CNS): > 100 µM

Compound: CSC(C1c2ccccc2N(C)c2[nH]c(=O)n(C)c(=O)c21)S(=O)(=O)c1ccc(C)cc1 (stereo not drawn)
- TGI (HOP-18 NSCLC): > 100 µM
- TGI (XF 498 CNS): > 100 µM
- TGI (DLD-1 colon): > 100 µM
- TGI (M19-MEL melanoma): > 100 µM
- TGI (DMS 114 small cell lung): > 100 µM
- TGI (DMS 273 small cell lung): > 100 µM
- TGI (SNB-78 CNS): > 100 µM

Compound: CCCCCCCCCCCC[N+]12CC[N+](C)(CC1)CC2
- TGI (HOP-18 NSCLC): > 100 µM
- TGI (XF 498 CNS): 80 µM
- TGI (DLD-1 colon): > 100 µM
- TGI (KM20L2 colon): 85.9 µM
- TGI (M19-MEL melanoma): 70.9 µM
- TGI (DMS 114 small cell lung): 44.6 µM
- TGI (DMS 273 small cell lung): 15.1 µM
- TGI (SNB-78 CNS): 76 µM

Compound: Brc1ccc(-c2cc3c(cc2C2SCCS2)OCO3)cc1
- TGI (HOP-18 NSCLC): > 100 µM
- TGI (XF 498 CNS): > 100 µM
- TGI (DLD-1 colon): > 100 µM
- TGI (KM20L2 colon): > 100 µM
- TGI (M19-MEL melanoma): > 100 µM
- TGI (DMS 114 small cell lung): > 100 µM
- TGI (DMS 273 small cell lung): > 100 µM
- TGI (SNB-78 CNS): > 100 µM

Compound: O=C(NC1=C(Cl)C(=O)c2ccccc2C1=O)C(=O)C(C(=O)c1ccc2ccccc2c1)C1OC(=O)c2ccccc21 (stereo not drawn)
- TGI (DLD-1 colon): 16.9 µM
- TGI (KM20L2 colon): 18.6 µM
- TGI (M19-MEL melanoma): 0.856 µM
- TGI (DMS 114 small cell lung): 15.1 µM
- TGI (SNB-78 CNS): 15.4 µM

Compound: CC(C)C(C(=O)N(C)[C@H](C(=O)N1CCC[C@H]1C(=O)N(C)[C@@H](Cc1ccccc1)C(=O)OCc1ccccc1)C(C)C)N(C)C(=O)[C@@H](NC(=O)OC(C)(C)C)C(C)C (stereo partly drawn) (Boc-V[ξNMeV][NMeV]P[NMeF]-OBn)
- TGI (HOP-18 NSCLC): > 100 µM
- TGI (XF 498 CNS): > 31.6 µM
- TGI (DLD-1 colon): > 31.6 µM
- TGI (KM20L2 colon): > 31.6 µM
- TGI (M19-MEL melanoma): > 31.6 µM
- TGI (DMS 114 small cell lung): > 31.6 µM
- TGI (DMS 273 small cell lung): > 31.6 µM
- TGI (SNB-78 CNS): > 31.6 µM

Compound: CN(C)CCC[N+]1=Nc2cccc3cccc(c23)N1
- TGI (HOP-18 NSCLC): > 100 µM
- TGI (XF 498 CNS): > 100 µM
- TGI (DLD-1 colon): 35.8 µM
- TGI (KM20L2 colon): > 100 µM
- TGI (M19-MEL melanoma): > 100 µM
- TGI (RXF-631 renal): > 100 µM
- TGI (DMS 114 small cell lung): > 100 µM
- TGI (DMS 273 small cell lung): 59.5 µM
- TGI (SNB-78 CNS): > 100 µM

Compound: COC(=O)C(CCC1(C)OCCO1)=[N+]=[N-]
- TGI (HOP-18 NSCLC): > 100 µM
- TGI (XF 498 CNS): > 100 µM
- TGI (DLD-1 colon): > 100 µM
- TGI (KM20L2 colon): > 100 µM
- TGI (RXF-631 renal): > 100 µM
- TGI (DMS 114 small cell lung): > 100 µM
- TGI (DMS 273 small cell lung): > 100 µM
- TGI (SNB-78 CNS): > 100 µM

Compound: NC(=S)N1N=C2c3ccccc3CCC[C@H]2[C@@H]1c1ccccc1
- TGI (XF 498 CNS): 16.5 µM
- TGI (DLD-1 colon): 25.7 µM
- TGI (KM20L2 colon): 5.22 µM
- TGI (M19-MEL melanoma): > 100 µM
- TGI (DMS 114 small cell lung): 50.8 µM
- TGI (DMS 273 small cell lung): 11.3 µM
- TGI (SNB-78 CNS): 61.9 µM

Compound: N#COc1ccc(Oc2ccc(OC#N)cc2)cc1
- TGI (HOP-18 NSCLC): > 100 µM
- TGI (XF 498 CNS): > 100 µM
- TGI (DLD-1 colon): > 100 µM
- TGI (KM20L2 colon): > 100 µM
- TGI (M19-MEL melanoma): > 100 µM
- TGI (RXF-631 renal): > 100 µM
- TGI (DMS 114 small cell lung): 92.7 µM
- TGI (SNB-78 CNS): > 100 µM

Compound: CCCCCCCCCCCCCS(=O)(=O)NCC(N)=O
- TGI (HOP-18 NSCLC): > 100 µM
- TGI (XF 498 CNS): > 100 µM
- TGI (DLD-1 colon): > 100 µM
- TGI (KM20L2 colon): > 100 µM
- TGI (M19-MEL melanoma): > 100 µM
- TGI (DMS 114 small cell lung): > 100 µM
- TGI (SNB-78 CNS): > 100 µM

Compound: COc1ccc(C2=Nc3ccccc3N=C(SC)C2)cc1
- TGI (HOP-18 NSCLC): > 100 µM
- TGI (XF 498 CNS): > 100 µM
- TGI (DLD-1 colon): > 100 µM
- TGI (KM20L2 colon): > 100 µM
- TGI (M19-MEL melanoma): > 100 µM
- TGI (RXF-631 renal): > 100 µM
- TGI (DMS 114 small cell lung): > 100 µM
- TGI (DMS 273 small cell lung): > 100 µM
- TGI (SNB-78 CNS): > 100 µM

Compound: CC12CCc3ccccc3C1=NNC(=O)C2 (stereo not drawn)
- TGI (HOP-18 NSCLC): > 100 µM
- TGI (XF 498 CNS): > 100 µM
- TGI (DLD-1 colon): > 100 µM
- TGI (KM20L2 colon): > 100 µM
- TGI (M19-MEL melanoma): > 100 µM
- TGI (DMS 114 small cell lung): > 100 µM
- TGI (DMS 273 small cell lung): > 100 µM
- TGI (SNB-78 CNS): > 100 µM

Compound: CC(=O)OCC1OC(n2c(=S)n(-c3ccccc3)c(=O)c3cc(Br)ccc32)C(OC(C)=O)C1OC(C)=O (stereo not drawn)
- TGI (HOP-18 NSCLC): > 100 µM
- TGI (XF 498 CNS): > 100 µM
- TGI (DLD-1 colon): > 100 µM
- TGI (KM20L2 colon): > 100 µM
- TGI (M19-MEL melanoma): > 100 µM
- TGI (DMS 114 small cell lung): > 100 µM
- TGI (DMS 273 small cell lung): > 100 µM
- TGI (SNB-78 CNS): > 100 µM

Compound: CCO/C(O)=c1/s/c(=C(\C#N)c2nc3ccccc3[nH]2)n(-c2ccccc2)c1=N
- TGI (XF 498 CNS): > 100 µM
- TGI (DLD-1 colon): > 100 µM
- TGI (KM20L2 colon): > 100 µM
- TGI (M19-MEL melanoma): > 100 µM
- TGI (DMS 273 small cell lung): > 100 µM
- TGI (SNB-78 CNS): > 100 µM

Compound: COc1ccc(-c2oc3cc(O)c(OC)c(O)c3c(=O)c2O)cc1
- TGI (HOP-18 NSCLC): > 100 µM
- TGI (XF 498 CNS): > 100 µM
- TGI (DLD-1 colon): 30.8 µM
- TGI (KM20L2 colon): > 100 µM
- TGI (M19-MEL melanoma): > 100 µM
- TGI (RXF-631 renal): > 100 µM
- TGI (DMS 273 small cell lung): 30 µM
- TGI (SNB-78 CNS): > 100 µM

Compound: O=C1Nc2ccc(Cl)c(I)c2C1=O
- TGI (XF 498 CNS): 34.2 µM
- TGI (DLD-1 colon): 31.4 µM
- TGI (KM20L2 colon): 34.9 µM
- TGI (M19-MEL melanoma): 24.9 µM
- TGI (DMS 114 small cell lung): 34.2 µM
- TGI (DMS 273 small cell lung): 30.8 µM

Compound: CC#COS(=O)(=O)c1ccc(C)cc1
- TGI (DLD-1 colon): > 100 µM
- TGI (KM20L2 colon): > 100 µM
- TGI (M19-MEL melanoma): > 100 µM
- TGI (DMS 114 small cell lung): > 100 µM
- TGI (SNB-78 CNS): > 100 µM

Compound: COc1ccc([C@H]2CC3C(=O)N(c4ccc(OC)cc4)C(=O)C3c3[nH]c4ccccc4c32)cc1 (stereo partly drawn)
- TGI (XF 498 CNS): 95.9 µM
- TGI (DLD-1 colon): > 100 µM
- TGI (KM20L2 colon): > 100 µM
- TGI (M19-MEL melanoma): > 100 µM
- TGI (DMS 114 small cell lung): > 100 µM
- TGI (DMS 273 small cell lung): > 100 µM
- TGI (SNB-78 CNS): > 100 µM
